# Results reported in patent publication US7598250B2, “Cyclic amine BACE-1 inhibitors having a heterocyclic substituent” (Schering Corporation, priority 2003, dated 2009).
# Biological target: T1, sproBACE1 (soluble human BACE1) (Homo sapiens, UniProt P56817)
# T1 construct: sBACE1, corresponding to amino acids 1-454; made in house; host or cells: Sf9 insect cells (baculovirus), secreted into the medium
# Assay: Peptide Hydrolysis Assay (HTRF, EuK-biotin labeled APPsw substrate)
# Format: biochemical
# Settings: 7 nM sproBACE1, APPsw substrate, pH 5.0, 3 hr at 30° C., HTRF 665/620 ratio
# Excerpt: A predicted soluble form of human BACE1 (sBACE1, corresponding to amino acids 1-454) was generated from the full length BACE1 cDNA (full length human BACE1 cDNA in pCDNA4/mycHisA construct; University of Toronto) by PCR using the advantage-GC cDNA PCR kit (Clontech, Palo Alto, Calif.). A HindIII/Pmel fragment from pCDNA4-sBACE1myc/His was blunt ended using Klenow and subcloned into the Stu I site of pFASTBACI(A) (Invitrogen). A sBACE1mycHis recombinant bacmid was generated by transposition in DH10Bac cells(GIBCO/BRL). Subsequently, the sBACE1mycHis bacmid construct was transfected into sf9 cells using CellFectin (Invitrogen, San Diego, Calif.) in order to generate recombinant baculovirus. […]
# Proteins, were eluted from the Q-sepharose column with Buffer B (20 mM HEPES, pH 8.0, 500 mM NaCl). […] Peak protein fractions as determined by the Bradford Assay (Biorad, Calif.) were concentrated using a Centricon 30 concentrator (Millipore). sBACE1 purity was estimated to be ˜90% as assessed by SDS-PAGE and Commassie Blue staining. […]
# IC50 determinations for inhibitors, (I), were determined by measuring the percent change of the relative fluorescence at 665 nm divided by the relative fluorescence at 620 nm, (665/620 ratio), in the presence of varying concentrations of I and a fixed concentration of enzyme and substrate. […]
# T1 sequence (P56817 22-454): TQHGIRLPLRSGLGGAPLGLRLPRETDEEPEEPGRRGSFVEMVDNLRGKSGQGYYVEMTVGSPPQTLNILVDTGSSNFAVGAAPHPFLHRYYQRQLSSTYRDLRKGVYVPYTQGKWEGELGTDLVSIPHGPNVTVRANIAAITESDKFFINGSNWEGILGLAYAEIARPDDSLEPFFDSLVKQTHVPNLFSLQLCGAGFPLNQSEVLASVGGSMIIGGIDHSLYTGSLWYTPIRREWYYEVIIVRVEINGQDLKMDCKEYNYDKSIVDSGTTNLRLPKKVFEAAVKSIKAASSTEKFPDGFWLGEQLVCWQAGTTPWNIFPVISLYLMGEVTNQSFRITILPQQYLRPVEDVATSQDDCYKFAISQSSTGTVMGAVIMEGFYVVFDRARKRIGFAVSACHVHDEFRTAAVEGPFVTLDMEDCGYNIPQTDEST
structure (smiles),measurement,value
CCCCCN1CC(C(=O)NC(Cc2cc(F)cc(F)c2)[C@H](O)[C@@H]2NCCN(Cc3ccccc3)C2=O)N(Cc2ccccc2)C1=O (stereo partly shown) [Example 5FF],IC50,1 nM
